One assay deals with leukotriene receptor. The assay can be described thus: leukotriene receptor binding assay (RBL-1). The text has this:
The details of the human leukocyte lipoxygenase assay are described below. The soybean lipoxygenase radiochemical is described in Prostaglandins, Leukotrienes, and Medicine, 11, 373-80 (1983). The leukotriene receptor binding assay is described by R. F. Bruns, W. J. Thomsen, and T. A. Pugsley in Life Sciences, 33, 645 (1983).
The following tables illustrate the activity of certain representative compounds of the present invention. The RBL-1 column represent data from the leukotriene receptor binding assay and the LDA(U) column reports on the human leukoxyte lipoxygenase assay.

Assay [1] has as its target human leukocyte lipoxygenase. The assay can be described thus: human leukocyte lipoxygenase assay (LDA). The following applies: LDA column. The assay is classed as biochemical. As for the experimental part:
An acetone-pentane powder of leukocyte and platelets was prepared from buffy coat obtained from the Michigan Red Cross and Michigan Department of Health in Lansing, Michigan, and was suspended in 5-7 volumes of cold 0.1M tris buffer, pH 7.4 containing 0.154 M NaCl. The suspension was centrifuged at 13,300 g for ten minutes at 4° C. The resultant pellet was retained, resuspended in five volumes of cold acetone, recentrifuged at 13,300 g and resuspended in five volumes of cold pentane. The pentane suspension was centrifuged for ten minutes at 13,300 g to give a pellet which was dried in the cold under vacuum with periodic pulverization. The dry powder is stable for several weeks when stored at -80° C.
This was prepared in the following manner. About 15 mg of the acetone-pentane powder is suspended in 4 ml of cold tris buffer (0.1M, pH 7.4), allowed to stand for five minutes and homogenized thoroughly. The homogenate is sonicated three times for 15 seconds each time, diluted to 7 ml with cold tris buffer (0.1M, pH 7.4) and centrifuged at 4° for 60 minutes at 13,300 g. The supernatant is retained and diluted to a total of 10 ml with cold tris buffer (0.1M, pH 7.4) to give the stock enzyme solution. […]
The enzyme reaction is followed spectrophotometrically by the appearance of a conjugated diene product at 234 nm. The reaction is monitored at 24° using a Gilford Model 2500 spectrophotometer. […]

pIC50: −log10 of the molar value.

`CCCCC/C=C\C1C=CCC=CC1CCCCCC(=O)O` (stereo not shown) [Example 12, 2,5-Cycloheptadiene-1-hexanoic acid, 7-(1-heptenyl)-(Z)-]: the results for the pIC50 (on leukotriene receptor; in assay [1]) were 4.58 and 6.13, respectively.
In the case of `CCCCC/C=C\C=C\C1CC1/C=C\CCCCCC(=O)O` (stereo not shown) [Example 11, 7-Octenoic acid, 8-[2-(1,3-nonadienyl)cyclopropyl]-, (Z,E,Z)], the negative logarithm of the IC50 (pIC50) (in general, −log10 of the IC50, conventionally taken in molar units) on leukotriene receptor is 4.99.
Consider `CCCCC/C=C\C1C=CCCC=C1/C=C\CCCC(=O)O` (stereo not shown) [Example 18, 5-Hexenoic acid, 6-[7-(1-heptenyl)-1,5-cycloheptadien-1-yl]-], for which, at leukotriene receptor, the pIC50 is 4.77.
At leukotriene receptor, `CCCCC/C=C\C=C\C1CC1/C=C\CCCC(=O)O` (stereo not shown) [Example 13, 6-[2-(1,3-nonadienyl)cyclopropyl]-5-hexenoic acid (Z,E,Z)] gave a pIC50 of 4.58.
`CCCCCCCC1C=CCC=CC1/C=C\CCCC(=O)O` (stereo not shown) [Example 6, 5-Hexenoic acid, 6-(7-heptyl-2,5-cycloheptadien-1-yl)-] gave a pIC50 on leukotriene receptor of 4.62.
Compound `CCCCC/C=C\C1C=CCC=CC1CCCC(=O)O` (stereo not shown) [Example 14, 2,5-cycloheptadiene-1-butanoic acid, 7-(1-heptenyl)-, (Z)-] had a pIC50 at leukotriene receptor of 4.27.

These data come from US4562006A, “Cycloheptadiene derivatives” (Warner-Lambert Company, priority 1984, dated 1985).
